In ChEMBL document CHEMBL4196052, “Rational modifications on a benzylidene-acrylohydrazide antiviral scaffold, synthesis and evaluation of bioactivity against Chikungunya virus” (Eur J Med Chem, 2018):

Tests used:
[1] = test system: Chikungunya virus; test: Antiviral activity against Chikungunya virus Indian Ocean strain 899 infected in African green monkey Vero cells assessed as inhibition of viral-induced cytopathic effect measured on day 5 post infection by MTS/PMS assay; format: functional, organism-based, Indian Ocean 899; conditions: for EC50 / EC90: Chikungunya virus, Indian Ocean 899, Vero, 120 h
[2] = test system: Chikungunya virus; test: Antiviral activity against Chikungunya virus Indian Ocean strain 899 infected in African green monkey Vero cells assessed as inhibition of viral-induced cytopathic effect by measuring concentration required for maximum activity measured on day 5 post infection by MTS/PMS assay; format: functional, Indian Ocean 899
[3] = Cytotoxicity against African green monkey Vero cells by MTS/PMS assay; format: cell-based; conditions: chlorocebus sabaeus
[4] = Selectivity index, ratio of CC50 for African green monkey Vero cells to EC50 for Chikungunya virus Indian Ocean strain 899 infected in African green monkey Vero cells; format: toxicity; conditions: read-out: Ratio CC50/EC50

Structure (SMILES) | Imax [1] [%] | EC50 [1] [µM] | EC90 [1] [µM] | Activity [2] [µM] | CC50 [3] [µM] | selectivity ratio [4]
Cc1ccc(NC(=O)N/C=C/c2ccccc2)cc1 | 21 | > 396 | > 396 | 396 | – | –
COc1ccc(CNC(=O)N/C=C/c2ccccc2)cc1OC | 13 | > 320 | > 320 | 320 | – | –
Cc1ccc(/C=N/NC(=O)/C=C/c2ccc(-c3ccccc3)cc2)cc1 | 78 | 230 | > 294 | 294 | > 294 | > 1.3
COc1ccc(CNC(=O)N/C=C/c2ccc(C(C)(C)C)cc2)cc1OC | 100 | 11.6 | 14.8 | 17 | – | –
Cc1ccc(/C=N/NC(=O)/C=C/c2ccc(C(F)(F)F)cc2)cc1 | 61 | 96.3 | > 150 | 99 | 203 | 2.1
Cc1ccc(-c2cn(CCc3ccccc3)nn2)cc1 | 74 | 122 | – | 163 | 200 | 1.6
CCOc1ccc(-c2nnc(CCc3ccccc3)o2)cc1OCC | 4 | > 98.4 | > 98.4 | 73.9 | – | –
Cc1ccc(-c2nnc(/C=C/c3ccc(C(C)(C)C)cc3)o2)cc1 | 8 | > 157 | > 157 | 157 | – | –
C/C(=N\NC(=O)c1ccc2ccccc2c1)c1ccc(C2CCCCC2)cc1 | 14 | > 270 | > 270 | 270 | – | –
CC(C)(C)c1ccc(/C=C/NC(=O)Nc2ccc(O)cc2)cc1 | 100 | 9.1 | 11.9 | 4.1 | – | –
O=C(N/N=C/c1ccc(O)cc1)c1nc2ccccc2[nH]1 | 33 | > 357 | > 357 | 357 | – | –
CCOc1ccc(C(=O)NNC(=O)/C=C/c2ccc(C(C)(C)C)cc2)cc1OCC | 11 | > 244 | > 244 | 6.3 | – | –
Cc1ccc(/C=N/NC(=S)NCCc2ccccc2)cc1 | 12 | > 336 | > 336 | 56 | – | –
CC(C)(C)c1ccc(C(=O)CC(=O)N/N=C/c2ccc(O)cc2)cc1 | 87 | 7.2 | 8 | 7.9 | 14.7 | 2.3
Oc1ccc(/C=N/NC(=S)NCCc2ccccc2)cc1 | 67 | 48.3 | – | 51 | 87.8 | 1.8
CC(C)(C)c1ccc(CCc2nnc(-c3ccc(O)cc3)o2)cc1 | 69 | 108 | > 103 | 103 | 191 | 1.8
C/C(=N\NC(=O)c1ccc2ccccc2n1)c1ccc(C2CCCCC2)cc1 | 13 | > 269 | > 269 | 269 | – | –
Cc1ccc(-c2[nH]c3ccccc3c2/C=N/NC(=S)NCCc2ccccc2)cc1 | 100 | 1.8 | 2.5 | 2.5 | 7.8 | 4.4
Cc1ccc(-c2nnc(CCc3ccc(C(C)(C)C)cc3)o2)cc1 | 100 | 17.2 | 21.7 | 26 | – | –
C/C(=N\NC(=O)N/C=C/c1ccc(C(C)(C)C)cc1)c1ccc(C2CCCCC2)cc1 | 90 | 42.3 | 78.8 | 79 | 123 | 2.9
Cc1ccc(CNC(=O)N/C=C/c2ccccc2)cc1 | 18 | > 376 | > 376 | 376 | – | –
C/C(=N\NC(=O)c1cnc2ccccc2c1)c1ccc(C2CCCCC2)cc1 | 19 | > 202 | > 202 | 202 | – | –
CCOc1ccc(/C=N/NC(=S)NCCc2ccccc2)cc1OCC | 90 | 5.9 | 9.8 | 9.3 | 109 | 18
CC(C)(C)c1ccc(/C=C/C(=O)Nc2nc3ccccc3[nH]2)cc1 | 38 | > 157 | > 157 | 157 | – | –

Structure (SMILES) | Imax [1] [%] | EC50 [1] [µM] | EC90 [1] [µM] | Activity [2] [µM] | CC50 [3] [µM] | selectivity ratio [4]
Cc1ccc(-c2nnc(Cc3ccc(C(C)(C)C)cc3)o2)cc1 | 100 | 17.9 | 22.7 | 27.2 | – | –
Cc1ccc(-c2nnc(CCc3ccccc3)o2)cc1 | 2 | > 378 | > 378 | 1 | – | –
C/C(=N\NC(=O)c1nc2ccccc2[nH]1)c1ccc(C2CCCCC2)cc1 | 83 | 2.6 | – | 4.3 | 6.2 | 2.4
Cc1ccc(C(=O)NNC(=O)/C=C/c2ccc(C(C)(C)C)cc2)cc1 | 9 | > 99.1 | > 99.1 | 99.1 | – | –
CCOc1ccc(/C=N/NC(=O)/C=C/c2ccc(C(F)(F)F)cc2)cc1OCC | 75 | 48.9 | – | 69 | 84.1 | 1.7
C/C(=N\NC(=O)c1cc2ccccc2[nH]1)c1ccc(C2CCCCC2)cc1 | 41 | > 209 | > 209 | 209 | – | –
Cc1ccc(/C=N/NC(=O)N/C=C/c2ccc(C(C)(C)C)cc2)cc1 | 50 | 246 | > 298 | 187 | 192 | 0.8
CC(C)(C)c1ccc(/C=C/NC(=O)NCc2ccccc2)cc1 | 8 | > 107 | > 107 | 107 | – | –
CC(C)(C)c1ccc(/C=C/NC(=O)N/N=C/c2ccc(O)cc2)cc1 | 89 | 5.6 | 7.5 | 7.4 | 10.4 | 1.9
Cc1ccc(NC(=O)N/C=C/c2ccc(C(C)(C)C)cc2)cc1 | 16 | > 61 | > 61 | 61 | – | –
Cc1ccc(CNC(=O)N/C=C/c2ccc(C(C)(C)C)cc2)cc1 | 10 | > 103 | > 103 | 103 | – | –
Cc1ccc(/C=N/NC(=O)/C=C/c2ccc(C(C)C)cc2)cc1 | 50 | 25.9 | – | 20 | 25 | 1
Cc1ccc2[nH]c(NC(=O)/C=C/c3ccc(C(C)(C)C)cc3)nc2c1 | 47 | > 300 | > 300 | 300 | – | –
CC(C)(C)c1ccc(CCC(=O)Nc2nc3ccccc3[nH]2)cc1 | 41 | > 311 | > 311 | 311 | – | –
Cc1ccc2[nH]c(NC(=O)CCc3ccc(C(C)(C)C)cc3)nc2c1 | 8 | > 298 | > 298 | 1.6 | – | –
CCOc1ccc(-c2nnc(CCc3ccc(C(C)(C)C)cc3)o2)cc1OCC | 61 | 12.4 | – | 13.5 | 15.5 | 1.2
CCOc1ccc(-c2nnc(Cc3ccc(C(C)(C)C)cc3)o2)cc1OCC | 15 | 39.7 | – | 131.4 | – | –
O=C(N/C=C/c1ccccc1)Nc1ccc(O)cc1 | 2 | > 393 | > 393 | 197 | – | –
CCOc1ccc(/C=N/NC(=O)CC(=O)c2ccc(C(C)(C)C)cc2)cc1OCC | 4 | > 244 | > 244 | 244 | 81 | –
CCOc1ccc(-c2nnc(/C=C/c3ccc(C(C)(C)C)cc3)o2)cc1OCC | 100 | 29 | 88.2 | 127.4 | – | –
Cc1ccc(/C=N/NC(=O)CC(=O)c2ccc(C(C)(C)C)cc2)cc1 | 13 | > 74 | > 74 | 74 | 84 | –
C/C(=N\NC(=S)NCCc1ccccc1)c1ccc(C2CCCCC2)cc1 | 90 | 4.3 | 5.9 | 6 | 52.9 | 12.2
CCOc1ccc(/C=N/NC(=O)N/C=C/c2ccc(C(C)(C)C)cc2)cc1OCC | 49 | > 100 | > 100 | 100 | – | –
